Laboratory results published in US11104805B2, “High-saturation scarlet color dye ink for high-speed inkjet process” (KOREA INSTITUE OF INDUSTRIAL TECHNOLOGY, priority 2018, dated 2021).
Entries after “also recorded” stand apart in the source; their conditions may differ.

Tests used:
[1] = Light stability: relative absorbance over time under light irradiation
Procedure: An absorbance value before light irradiation was set to 1 and relative absorbance values over time were measured.

[2] = Thermal stability by TGA under N2 atmosphere; format: physicochemical
Source text: The thermal stability of each sample was investigated by a TGA method under an N2 atmosphere.

[3] = UV-Vis absorption spectra of dyes in water; format: physicochemical; details: 10^−5 M in water
Source text: The UV-Vis absorption spectra of the dyes 1b to 3b measured at 10^−5 M in water are illustrated in FIG. 2, and corresponding data are shown in Table 1 below. […] When the water solubility of the dye increases, the probability of being present as a single molecule increases, and thus the color developability of each dye molecule is increased, resulting in increased color intensity.
In addition, an absorption peak form having two absorption maxima appeared. This is because a single molecule and aggregated molecules have different absorption maxima. Generally, as the concentration becomes lower, the probability of being present as a single molecule increases, and as the concentration increases, the tendency to aggregate becomes stronger, and thus one peak appears at each maximum, but it was confirmed from this experiment that since the two cases were present at a measurement concentration of 10 μM, absorption peaks appeared separately.

[4] = Water solubility of dyes; format: physicochemical

shift of absorption maxima after final light irradiation ([1]; 1,200 minutes) | relative absorbance after final light irradiation ([1]; 1,200 minutes, absorbance before irradiation set to 1) | λmax (nm) (after 1200 min) ([1]; after 1200 min light irradiation, first (or only) maximum) | λmax (nm) ([1]; before light irradiation, first (or only) maximum) | K (photodegradation rate constant) ([1]; light irradiation) [min⁻¹] | Td (degradation temperature) [2] [°C] | εmax ([3]; at first (or only) absorption maximum) [L/mol/cm] | λmax (nm) (after 1,200 min) ([3]; first (or only) absorption maximum) | SMILES | water solubility compared with the synthesized perylene dyes (1b to 3b) ([4]; comparison in words) | water solubility ([4]; in water) [wt %]
about 4 nm | about 0.5 | (→ 506) nm | 502 | 0.0004945 | 291 | 23000 | 521 | O=S(=O)([O-])c1ccc2c(N=Nc3ccc(S(=O)(=O)[O-])c4ccccc34)c(O)c(S(=O)(=O)[O-])cc2c1.[Na+].[Na+].[Na+] [Acid red 27] | poorer water solubility; also recorded: deteriorated solubility | –
– | – | – | – | – | – | – | – | O=C1c2ccc3c4c(S(=O)(=O)O)cc5c6c(ccc(c7c(S(=O)(=O)O)cc(c2c37)C(=O)N1c1ccc(S(=O)(=O)O)cc1)c64)C(=O)N(c1ccc(S(=O)(=O)O)cc1)C5=O [Dye 3b, N,N′-bis[4-(sulfuric acid)phenyl]-1,7-(disulfuric acid)perylene-3,4,9,10-tetra carboxydiimide] | – | ≥ 20
